Values after ≈ are worked out from the molar mass of the structure shown. Read-outs that look alike come from different tables or passages of the source.
Test system: S. aureus clinical isolates
Test: microbe, parasite or virus in culture
Type: cell-based
Settings: Staphylococcus aureus, read-out: MIC

**Q.** `CC(=O)NC[C@H]1CN(c2ccc(N3CCOCC3)c(F)c2)C(=O)O1` [Linezolid] was tested. Which MIC (MRSA, S. aureus IHMA 1621638, MRSA / VSSA) did it give?
**A.** 2 µg/mL (≈ 5.93 µM)

**Q.** What about the MIC (MRSA, S. aureus IHMA 1622252, MRSA / VSSA) of the same compound?
**A.** 4 µg/mL (≈ 11.9 µM)

**Q.** What about the MIC (MRSA, S. aureus IHMA 1622527, MRSA / VSSA) of the same compound?
**A.** 4 µg/mL (≈ 11.9 µM)

**Q.** And the MIC (MRSA, S. aureus IHMA 1666371, MRSA / VSSA)?
**A.** 0.5 µg/mL (≈ 1.48 µM)

**Q.** What about the MIC (MRSA, S. aureus IHMA 1695391, MRSA / VSSA) of the same compound?
**A.** 2 µg/mL (≈ 5.93 µM)

**Q.** And the MIC (MRSA, S. aureus IHMA 1703428, MRSA / VSSA)?
**A.** 2 µg/mL (≈ 5.93 µM)

**Q.** What about the MIC (MRSA, S. aureus IHMA 1720350, MRSA / VSSA) of the same compound?
**A.** 2 µg/mL (≈ 5.93 µM)

**Q.** What about the MIC (MRSA, S. aureus IHMA 1732989, MRSA / VSSA) of the same compound?
**A.** 4 µg/mL (≈ 11.9 µM)

**Q.** What about the MIC (MRSA, S. aureus IHMA 1742231, MRSA / VSSA) of the same compound?
**A.** 2 µg/mL (≈ 5.93 µM)

**Q.** What about the MIC (MRSA, S. aureus IHMA 1766357, MRSA / VSSA) of the same compound?
**A.** 4 µg/mL (≈ 11.9 µM)

**Q.** And the MIC (MSSA / NRS 12 / VISA, S. aureus IHMA 1308244, NRS12, MSSA / VISA)?
**A.** 4 µg/mL (≈ 11.9 µM)

**Q.** What about the MIC (MSSA / NRS 13 / VISA, S. aureus IHMA 1308245, NRS13, MSSA / VISA) of the same compound?
**A.** 2 µg/mL (≈ 5.93 µM)

**Q.** And the MIC (MSSA / NRS 14 / VISA, S. aureus IHMA 1308246, NRS14, MSSA / VISA)?
**A.** 2 µg/mL (≈ 5.93 µM)

**Q.** What about the MIC (MSSA / NRS 17 / VISA, S. aureus IHMA 1308247, NRS17, MSSA / VISA) of the same compound?
**A.** 2 µg/mL (≈ 5.93 µM)

**Q.** And the MIC (MSSA / NRS 28 / VISA, S. aureus IHMA 1308249, NRS28, MSSA / VISA)?
**A.** 0.5 µg/mL (≈ 1.48 µM)

**Q.** And the MIC (MSSA / NRS 52, S. aureus IHMA 1308252, NRS52, MSSA / VSSA* (*Expected VAN intermediate, confirmed VAN susceptible twice), test date 2018-11-07)?
**A.** 1 µg/mL (≈ 2.96 µM)

**Q.** What about the MIC (MSSA / USA100 / VRSA, S. aureus IHMA 672236, VRS6, MSSA / VRSA, USA100) of the same compound?
**A.** 1 µg/mL (≈ 2.96 µM)

**Q.** And the MIC (MSSA, S. aureus IHMA 1563826, MSSA / VSSA)?
**A.** 4 µg/mL (≈ 11.9 µM)

**Q.** What about the MIC (MSSA, S. aureus IHMA 1565492, MSSA / VSSA) of the same compound?
**A.** 2 µg/mL (≈ 5.93 µM)

**Q.** What about the MIC (MSSA, S. aureus IHMA 1569499, MSSA / VSSA) of the same compound?
**A.** 2 µg/mL (≈ 5.93 µM)

**Q.** And the MIC (MSSA, S. aureus IHMA 1569754, MSSA / VSSA)?
**A.** 2 µg/mL (≈ 5.93 µM)

**Q.** And the MIC (MSSA, S. aureus IHMA 1574202, MSSA / VSSA)?
**A.** 2 µg/mL (≈ 5.93 µM)

**Q.** What about the MIC (MSSA, S. aureus IHMA 1575652, MSSA / VSSA) of the same compound?
**A.** 4 µg/mL (≈ 11.9 µM)

**Q.** What about the MIC (MSSA, S. aureus IHMA 1575779, MSSA / VSSA) of the same compound?
**A.** 2 µg/mL (≈ 5.93 µM)

**Q.** And the MIC (MSSA, S. aureus IHMA 1576329, MSSA / VSSA)?
**A.** 4 µg/mL (≈ 11.9 µM)

**Q.** What about the MIC (MSSA, S. aureus IHMA 1577800, MSSA / VSSA) of the same compound?
**A.** 4 µg/mL (≈ 11.9 µM)

**Q.** And the MIC (MSSA, S. aureus IHMA 1578560, MSSA / VSSA)?
**A.** 4 µg/mL (≈ 11.9 µM)

**Q.** What about the MIC (MSSA, S. aureus IHMA 1580233, MSSA / VSSA) of the same compound?
**A.** 2 µg/mL (≈ 5.93 µM)

**Q.** And the MIC (MSSA, S. aureus IHMA 1580925, MSSA / VSSA)?
**A.** 2 µg/mL (≈ 5.93 µM)

**Q.** What about the MIC (MSSA, S. aureus IHMA 1580955, MSSA / VSSA) of the same compound?
**A.** 2 µg/mL (≈ 5.93 µM)

**Q.** And the MIC (MSSA, S. aureus IHMA 1582586, MSSA / VSSA)?
**A.** 8 µg/mL (≈ 23.7 µM)

**Q.** What about the MIC (MSSA, S. aureus IHMA 1582691, MSSA / VSSA) of the same compound?
**A.** 2 µg/mL (≈ 5.93 µM)

**Q.** What about the MIC (MSSA, S. aureus IHMA 1584230, MSSA / VSSA) of the same compound?
**A.** 4 µg/mL (≈ 11.9 µM)

**Q.** And the MIC (MSSA, S. aureus IHMA 1587279, MSSA / VSSA)?
**A.** 1 µg/mL (≈ 2.96 µM)

**Q.** What about the MIC (MSSA, S. aureus IHMA 1591459, MSSA / VSSA) of the same compound?
**A.** 2 µg/mL (≈ 5.93 µM)

**Q.** And the MIC (MSSA, S. aureus IHMA 1592749, MSSA / VSSA)?
**A.** 2 µg/mL (≈ 5.93 µM)

**Q.** What about the MIC (MSSA, S. aureus IHMA 1592751, MSSA / VSSA) of the same compound?
**A.** 4 µg/mL (≈ 11.9 µM)

**Q.** And the MIC (MSSA, S. aureus IHMA 1594297, MSSA / VSSA)?
**A.** 2 µg/mL (≈ 5.93 µM)

**Q.** And the MIC (MSSA, S. aureus IHMA 1597120, MSSA / VSSA)?
**A.** 4 µg/mL (≈ 11.9 µM)

**Q.** And the MIC (MSSA, S. aureus IHMA 1597125, MSSA / VSSA)?
**A.** 2 µg/mL (≈ 5.93 µM)

**Q.** And the MIC (MSSA, S. aureus IHMA 1599157, MSSA / VSSA)?
**A.** 2 µg/mL (≈ 5.93 µM)

**Q.** What about the MIC (MSSA, S. aureus IHMA 1599506, MSSA / VSSA) of the same compound?
**A.** 4 µg/mL (≈ 11.9 µM)

**Q.** What about the MIC (MSSA, S. aureus IHMA 1602078, MSSA / VSSA) of the same compound?
**A.** 4 µg/mL (≈ 11.9 µM)

**Q.** What about the MIC (MSSA, S. aureus IHMA 1604586, MSSA / VSSA) of the same compound?
**A.** 2 µg/mL (≈ 5.93 µM)

**Q.** And the MIC (MSSA, S. aureus IHMA 1604609, MSSA / VSSA)?
**A.** 2 µg/mL (≈ 5.93 µM)

**Q.** What about the MIC (MSSA, S. aureus IHMA 1609919, MSSA / VSSA) of the same compound?
**A.** 2 µg/mL (≈ 5.93 µM)

**Q.** What about the MIC (MSSA, S. aureus IHMA 1622864, MSSA / VSSA) of the same compound?
**A.** 2 µg/mL (≈ 5.93 µM)

**Q.** And the MIC (MSSA, S. aureus IHMA 1626392, MSSA / VSSA)?
**A.** 2 µg/mL (≈ 5.93 µM)

**Q.** What about the MIC (MSSA, S. aureus IHMA 1713793, MSSA / VSSA) of the same compound?
**A.** 2 µg/mL (≈ 5.93 µM)

Reference: article PMC7561186, “Rational design of balanced dual-targeting antibiotics with limited resistance” (PLoS Biology, 2020)
